Experiment [1] addresses Beta Secretase enzyme (BACE) (Homo sapiens, UniProt P56817). The experiment is described as follows: In vitro enzymatic BACE FRET (fluorescence resonance energy transfer) assay. Format: biochemical. The conditions noted are these: average IC50, enzyme assay; read-out: BACE 1 FRET assay. The procedure, abridged: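 Run in 0.05 M acetate pH 4.2 with 10% DMSO final and 100 uM genapol; started by adding 50 nM FRET peptide substrate (fluorophore and quencher flanking the cleavage site), incubated one hour, then stopped with Tris to neutral pH before reading fluorescence.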

Experiment [2] relates to Aβ40 in conditioned medium of cells stably expressing Amyloid Precursor Protein (APP). Kind of experiment: In vitro BACE cell-based assay (Aβ40 in conditioned medium, sandwich ELISA). To be noted: Homo sapiens, read-out: HEK cell assay. The procedure, abridged:
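The sandwich ELISA pairs pAb40 capture (3 h, 4 °C) with 6E10 detection (2 h, 4 °C) and a streptavidin-europium TRF read-out. Supernatants come from APP-expressing cells grown in 10% FBS DMEM.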

The mark [3] stands for this setting: HEK293, average IC50, HEK cells.

The text below walks through data of patent publication US8883782B2, “Spiro-tetracyclic ring compounds as beta-secretase modulators and methods of use” (Amgen Inc., priority 2010, dated 2014).

Read-outs that look alike come from different tables or passages of the source.

Chain of Beta Secretase enzyme (BACE) (P56817 46-501, species assumed): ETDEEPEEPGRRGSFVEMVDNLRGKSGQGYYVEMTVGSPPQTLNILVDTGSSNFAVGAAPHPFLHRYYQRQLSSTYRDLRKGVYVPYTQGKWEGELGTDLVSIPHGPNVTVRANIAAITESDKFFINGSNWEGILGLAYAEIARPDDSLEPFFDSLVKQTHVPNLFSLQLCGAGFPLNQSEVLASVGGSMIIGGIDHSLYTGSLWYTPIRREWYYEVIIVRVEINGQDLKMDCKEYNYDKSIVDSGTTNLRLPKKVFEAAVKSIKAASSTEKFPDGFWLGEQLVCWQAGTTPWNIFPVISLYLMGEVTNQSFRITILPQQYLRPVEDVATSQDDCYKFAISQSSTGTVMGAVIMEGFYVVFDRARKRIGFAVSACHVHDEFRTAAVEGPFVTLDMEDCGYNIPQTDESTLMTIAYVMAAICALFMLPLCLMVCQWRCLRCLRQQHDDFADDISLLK

With `CC#Cc1cncc(-c2ccc3c(c2)[C@@]2(COC(N)=N2)c2cc(OC)cc(F)c2O3)c1` [Example 824, (4S)-4′-fluoro-2′-methoxy-7′-(5-(1-propyn-1-yl)-3-pyridinyl)spiro[1,3-oxazole-4,9′-xanthen]-2-amine], the IC50 in experiment [1] was 0.2 nM; in experiment [2] (HEK293, average IC50) it was 20 nM.

On to `CC1(C#Cc2cc3c(cn2)Oc2ccc(-c4c(F)ccnc4F)cc2[C@@]32COC(N)=N2)COC1` [Example 957, (5S)-7-(2,4-difluoro-3-pyridinyl)-3-((3-methyl-3-oxetanyl)ethynyl)spiro[chromeno[2,3-c]pyridine-5,4′-[1,3]oxazol]-2′-amine], for which the IC50 in experiment [1] is 1.2 nM; in experiment [2] (setting [3]), 33 nM.

Regarding `Cn1cc(-c2cncc(-c3ccc4c(c3)[C@@]3(COC(N)=N3)c3cc(-c5cnn(C)c5)ncc3O4)c2)cn1` [Example 233, (5S)-3-(1-methyl-1H-pyrazol-4-yl)-7-(5-(1-methyl-1H-pyrazol-4-yl)-3-pyridinyl)spiro[chromeno[2,3-c]pyridine-5,4′-[1,3]oxazol]-2′-amine], the IC50 was 28 nM in experiment [1] and 92 nM in experiment [2] (HEK293, average IC50).

`CC(C)(C)C#Cc1ccc2c(c1)[C@@]1(COC(N)=N1)c1cc(N3CCOCC3)cnc1O2` [Example 464, (5S)-7-(3,3-dimethyl-1-butyn-1-yl)-3-(4-morpholinyl)spiro[chromeno[2,3-b]pyridine-5,4′-[1,3]oxazol]-2′-amine]: the IC50 is 12.8 nM in experiment [1] and 69 nM in experiment [2] (setting [3]).

On to `CC1(C)CC(c2cc3c(cn2)Oc2ccc(-c4cncnc4)cc2[C@@]32COC(N)=N2)=CCO1` [Example 679, (5S)-3-(2,2-dimethyl-3,6-dihydro-2H-pyran-4-yl)-7-(5-pyrimidinyl)spiro[chromeno[2,3-c]pyridine-5,4′-[1,3]oxazol]-2′-amine], for which the values for the IC50 in experiment [1] and in experiment [2] (setting [3]) were 1.6 nM and 14 nM, respectively.

In the case of `Cn1ccc(-c2cnc3c(c2)[C@]2(COC(N)=N2)c2cc(C#CC4CC4)ccc2O3)n1` [Example 183, (5S)-7-(cyclopropylethynyl)-3-(1-methyl-1H-pyrazol-3-yl)spiro[chromeno[2,3-b]pyridine-5,4′-[1,3]oxazol]-2′-amine], the IC50 was 51.5 nM in experiment [1] and 189 nM in experiment [2] (HEK293, average IC50).

As for `CC#Cc1cncc(-c2ccc3c(c2)[C@@]2(CSC(N)=N2)c2cc(-c4cncc(C#CC)c4)cnc2O3)c1` [Example 730, (5S)-3,7-bis(5-(1-propyn-1-yl)-3-pyridinyl)spiro[chromeno[2,3-b]pyridine-5,4′-[1,3]thiazol]-2′-amine], the IC50 in experiment [1] is 1.8 nM; in experiment [2] (HEK293, average IC50) it was 171 nM.

Regarding `COc1ccc2c(c1)C1(COC(N)=N1)c1cc(N3CCC(F)(F)C3)ncc1O2` (stereo not drawn) [Example 431, 3-(3,3-difluoro-1-pyrrolidinyl)-7-methoxyspiro[chromeno[2,3-c]pyridine-5,4′-[1,3]oxazol]-2′-amine], the IC50 in experiment [1] was 1730 nM; in experiment [2] (setting [3]), 10000 nM.

Turning to `NC1=N[C@@]2(CS1)c1cc(-c3cccnc3)ccc1Oc1c2cc(-c2ccnc(F)c2)nc1F` [Example 1030, (5S)-1-fluoro-3-(2-fluoro-4-pyridinyl)-7-(3-pyridinyl)spiro[chromeno[2,3-c]pyridine-5,4′-[1,3]thiazol]-2′-amine], the IC50 is 0.2 nM in experiment [1] and 5 nM in experiment [2] (HEK293, average IC50).

In the case of `NC1=N[C@]2(CO1)c1cc(-c3cccnc3F)ccc1Oc1cc(OC(F)(F)F)c(-c3ccnc(F)c3)cc12` [Example 990, (4R)-7′-(2-fluoro-3-pyridinyl)-2′-(2-fluoro-4-pyridinyl)-3′-(trifluoromethoxy)spiro[1,3-oxazole-4,9′-xanthen]-2-amine], the IC50 in experiment [1] came to 8220 nM; in experiment [2] (HEK293, average IC50), 7220 nM.

Take `CC#Cc1cncc(-c2ccc3c(c2)[C@@]2(CSC(N)=N2)c2cc(-c4ncccn4)cnc2O3)c1` [Example 789, (5S)-7-(5-(1-propyn-1-yl)-3-pyridinyl)-3-(2-pyrimidinyl)spiro[chromeno[2,3-b]pyridine-5,4′-[1,3]thiazol]-2′-amine]: the IC50 in experiment [1] amounted to 2.2 nM; in experiment [2] (HEK293, average IC50) it was 9 nM.

Take `NC1=N[C@@]2(CO1)c1cc(-c3cccnc3F)ccc1Oc1cc(OC(F)(F)F)c(Br)cc12` [Example 989, (4S)-2′-bromo-7′-(2-fluoro-3-pyridinyl)-3′-(trifluoromethoxy)spiro[1,3-oxazole-4,9′-xanthen]-2-amine]: the IC50 in experiment [1] is 2380 nM; in experiment [2] (HEK293, average IC50), ≥ 10000 nM.

Take `COc1ccc2c(c1)[C@@]1(COC(N)=N1)c1cc(C3(F)CCOCC3)cc(F)c1O2` [Example 939, (4S)-4′-fluoro-2′-(4-fluorotetrahydro-2H-pyran-4-yl)-7′-methoxyspiro[1,3-oxazole-4,9′-xanthen]-2-amine]: the IC50 in experiment [1] was found to be 1710 nM; in experiment [2] (setting [3]) it was 3560 nM.

As for `NC1=N[C@@]2(CO1)c1cc(-c3cccnc3F)ccc1Oc1ncc(N3CCC(F)(F)CC3)cc12` [Example 478, (5S)-3-(4,4-difluoro-1-piperidinyl)-7-(2-fluoro-3-pyridinyl)spiro[chromeno[2,3-b]pyridine-5,4′-[1,3]oxazol]-2′-amine], the IC50 in experiment [1] was determined as 2.1 nM; in experiment [2] (setting [3]), 14.3 nM.

On to `NC1=N[C@@]2(CO1)c1cc(-c3cncc(F)c3)ccc1Oc1c2cc(-c2cccnc2)nc1F` [Example 630, (5S)-1-fluoro-7-(5-fluoro-3-pyridinyl)-3-(3-pyridinyl)spiro[chromeno[2,3-c]pyridine-5,4′-[1,3]oxazol]-2′-amine], for which the IC50 in experiment [1] was determined as 0.3 nM; in experiment [2] (setting [3]) it was 11 nM.

As for `Cc1ccnn1-c1cc(F)c2c(c1)[C@]1(COC(N)=N1)c1cc(O)ccc1O2` [Example 631, (4S)-2-amino-5′-fluoro-7′-(5-methyl-1H-pyrazol-1-yl)spiro[1,3-oxazole-4,9′-xanthen]-2′-ol], the results for the IC50 in experiment [1] and in experiment [2] (setting [3]) were 21.4 nM and 184 nM, respectively.

On to `CC1(COc2cc(F)c3c(c2)[C@]2(COC(N)=N2)c2cc(-c4ccc(F)nc4)ccc2O3)COC1` [Example 266, (4S)-4′-fluoro-7′-(6-fluoro-3-pyridinyl)-2′-((3-methyl-3-oxetanyl)methoxy)spiro[1,3-oxazole-4,9′-xanthen]-2-amine], for which the IC50 in experiment [1] came to 2.2 nM; in experiment [2] (HEK293, average IC50), 6.8 nM.

`NC1=N[C@@]2(CO1)c1cc(-c3cccnc3F)ccc1Oc1c(F)cc(-c3ccncc3)cc12` [Example 203, (4S)-4′-fluoro-7′-(2-fluoro-3-pyridinyl)-2′-(4-pyridinyl)spiro[1,3-oxazole-4,9′-xanthen]-2-amine]: the IC50 was 1.1 nM in experiment [1] and 7.7 nM in experiment [2] (HEK293, average IC50).

On to `CC#Cc1cncc(-c2ccc3c(c2)[C@@]2(COC(N)=N2)c2cc(Cl)nc(N4CCC(F)(F)C4)c2O3)c1` [Example 925, (5S)-3-chloro-1-(3,3-difluoro-1-pyrrolidinyl)-7-(5-(1-propyn-1-yl)-3-pyridinyl)spiro[chromeno[2,3-c]pyridine-5,4′-[1,3]oxazol]-2′-amine], for which the IC50 in experiment [1] was determined as 24.6 nM; in experiment [2] (setting [3]), 547 nM.

As for `NC1=N[C@@]2(CO1)c1cc(-c3ccccc3)ccc1Oc1cnc(C3CCOCC3)cc12` [Example 238, (5S)-7-phenyl-3-(tetrahydro-2H-pyran-4-yl)spiro[chromeno[2,3-c]pyridine-5,4′-[1,3]oxazol]-2′-amine], the IC50 in experiment [1] turned out to be 40.7 nM; in experiment [2] (HEK293, average IC50), 164 nM.

Consider `Cn1cc(-c2cnc3c(c2)[C@]2(CSC(N)=N2)c2cc(-c4cccnc4F)ccc2O3)cn1` [Example 584, (5S)-7-(2-fluoro-3-pyridinyl)-3-(1-methyl-1H-pyrazol-4-yl)spiro[chromeno[2,3-b]pyridine-5,4′-[1,3]thiazol]-2′-amine], for which the IC50 in experiment [1] was found to be 2 nM; in experiment [2] (setting [3]), 15.9 nM.

`NC1=N[C@@]2(CO1)c1cc(-c3cncc(N4CCOCC4)c3)ccc1Oc1c(F)cc(N3CCOCC3)cc12` [Example 209, (4S)-4′-fluoro-2′-(4-morpholinyl)-7′-(5-(4-morpholinyl)-3-pyridinyl)spiro[1,3-oxazole-4,9′-xanthen]-2-amine]: the IC50 stood at 249 nM in experiment [1] and 209 nM in experiment [2] (HEK293, average IC50).

Consider `C[C@@H]1CN(c2cc(F)c3c(c2)[C@]2(COC(N)=N2)c2cc(-c4cccnc4F)ccc2O3)C[C@H](C)O1` [Example 303, (4S)-2′-((2R,6S)-2,6-dimethyl-4-morpholinyl)-4′-fluoro-7′-(2-fluoro-3-pyridinyl)spiro[1,3-oxazole-4,9′-xanthen]-2-amine], for which the IC50 in experiment [1] was 2 nM; in experiment [2] (HEK293, average IC50), 6.7 nM.

As for `NC1=N[C@@]2(CS1)c1cc(-c3c(F)ccnc3F)ccc1Oc1cnc(-c3ccnc(F)c3)cc12` [Example 1023, (5S)-7-(2,4-difluoro-3-pyridinyl)-3-(2-fluoro-4-pyridinyl)spiro[chromeno[2,3-c]pyridine-5,4′-[1,3]thiazol]-2′-amine], the IC50 in experiment [1] came out at 0.4 nM; in experiment [2] (HEK293, average IC50) it was 18 nM.

For the molecule `CC1(C#Cc2ccc3c(c2)[C@]2(COC(N)=N2)c2cc(-c4cncnc4)c(F)cc2O3)COC1` [Example 498, (4R)-3′-fluoro-7′-((3-methyl-3-oxetanyl)ethynyl)-2′-(5-pyrimidinyl)spiro[1,3-oxazole-4,9′-xanthen]-2-amine], the results for the IC50 in experiment [1] and in experiment [2] (setting [3]) were 3.8 nM and 19.1 nM, respectively.

In the case of `CC#Cc1cnc(F)c(-c2ccc3c(c2)[C@@]2(COC(N)=N2)c2cc(-c4cnn(C)c4)cnc2O3)c1` [Example 954, (5S)-7-(2-fluoro-5-(1-propyn-1-yl)-3-pyridinyl)-3-(1-methyl-1H-pyrazol-4-yl)spiro[chromeno[2,3-b]pyridine-5,4′-[1,3]oxazol]-2′-amine], the IC50 in experiment [1] was 0.3 nM; in experiment [2] (setting [3]) it was 3 nM.

Regarding `CC1(C#Cc2cc(F)c3c(c2)[C@]2(COC(N)=N2)c2cc(-c4cncc(F)c4)ccc2O3)COC1` [Example 599, (4S)-4′-fluoro-7′-(5-fluoro-3-pyridinyl)-2′-((3-methyl-3-oxetanyl)ethynyl)spiro[1,3-oxazole-4,9′-xanthen]-2-amine], the IC50 in experiment [1] turned out to be 1.1 nM; in experiment [2] (setting [3]), 11 nM.
